Structures are written as SMILES.

Results on nine compounds are retold here after patent US7211587B2, “Quinoline derivatives and quinazoline derivatives having azolyl group” (Kirin Beer Kabushiki Kaisha, priority 2001, dated 2007).

One experiment has as its target T1, human KDR (Homo sapiens, UniProt P35968).
T1 construct: expressed in transfected cells; host or cells: NIH 3T3 cells (mouse fibroblasts) stably expressing human KDR
As to the kind of experiment: Inhibitory activity against KDR phosphorylation by ELISA (VEGF-stimulated NIH 3T3 cells expressing human KDR). The note with it: VEGF 100 ng/ml, compound 1 hr, read-out: IC50 (inhibition of KDR phosphorylation). In kind it is cell-based. As to the method: The harvested cells were inoculated into wells of a collagen-type one-coat 96-well flat-bottom plate, each containing the same medium, in an amount of 1.5×10^4 per well, followed by cultivation at 37° C. overnight. The medium was then replaced by a DMEM medium containing 0.1% fetal calf serum. A solution of a test compound in dimethyl sulfoxide was added to each well, and the cultivation was continued at 37° C. for additional one hr. A human recombinant vascular endothelial growth factor (hereinafter abbreviated to “VEGF”) was added to a final concentration of 100 ng/ml, and the stimulation of cells was carried out at 37° C. for 2 min. The medium was removed, the cells were washed with phosphate buffered saline (pH 7.4), and 50 μl of a solubilization buffer (20 mM HEPES (pH 7.4), 150 mM NaCl, 0.2% Triton X-100, 10% glycerol, 5 mM sodium orthovanadylate, 5 mM disodium ethylenediaminetetraacetate, and 2 mM Na4P2O7) was then added thereto. The mixture was shaken at 4° C. for 2 hr to prepare a cell extract.
Separately, phosphate buffered saline (50 μl, pH 7.4) containing 5 μg/ml of an anti-phospho-tyrosine antibody (PY20; purchased from Transduction Laboratories) was added to a microplate for ELISA (Maxisorp; purchased from NUNC), followed by standing at 4° C. overnight to form a solid phase on the wells. After washing of the plate, 300 μl of a blocking solution was added, followed by standing at room temperature for 2 hr to perform blocking. After washing, the whole quantity of the cell extract was transferred to the wells, and the plate was then allowed to stand at 4° C. overnight. After washing, an anti-KDR antibody (purchased from Santa Cruz) was allowed to react at room temperature for one hr, and, after washing, a peroxidase-labeled anti-rabbit Ig antibody (purchased from Amersham) was allowed to react at room temperature for one hr. After washing, a chromophoric substrate for peroxidase (purchased from Sumitomo Bakelite Co., Ltd.) was added thereto to initiate a reaction. After a suitable level of color development, a reaction termination solution was added to stop the reaction, and the absorbance at 450 nm was measured with a microplate reader. The KDR phosphorylation activity for each well was determined by presuming the absorbance with the addition of VEGF and without the addition of the medicament to be 100% KDR phosphorylation activity and the absorbance without the addition of the medicament and VEGF to be 0% KDR phosphorylation activity.

Experiment [1] relates to Human pulmonary carcinoma cells (LC-6). As to the kind of experiment: Antitumor activity against human pulmonary carcinoma cells (LC-6) transplanted into nude mice. The settings on record: Mus musculus, 216 h; LC-6 in nude mice, oral 20 mg/kg once a day for 9 days; read-out: TGIR (tumor growth inhibition rate). In kind it is in vivo. As to the method: Human pulmonary carcinoma cells (LC-6) (obtained from Central Laboratories for Experimental Animals) were transplanted into nude mice. When the tumor volume became about 100 mm^3, the mice were grouped so that each group consisted of four mice and the average tumor volume was even among the groups. A test compound was orally administered at a dose of 20 mg/kg to the test groups every day once a day for 9 days, while only a vehicle was administered to a control group in the manner as in the test groups. The tumor growth inhibition rate (TGIR) was calculated as follows: The tumor growth inhibition rate (TGIR)=(1−TX/CX)×100 wherein CX represents the volume of tumor at day X for the control group when the tumor volume at the first day of the administration was presumed to be 1; and TX represents the tumor volume for test compound administration groups.

The test system is the same in experiment [2]. As to the kind of experiment: Antitumor activity against human pulmonary carcinoma cells (LC-6) using nude rats. In kind it is in vivo. The settings on record: LC-6 in nude rats. The protocol: Human pulmonary carcinoma cells (LC-6) (obtained from Central Laboratories for Experimental Animals) were transplanted into nude rats. When the tumor volume became about 700 mm^3, the rats were grouped so that each group consisted of four rats and the average tumor volume was even among the groups. A test compound was orally administered at doses of 0.2, 0.5, 1.0, and 5.0 mg/kg to the test groups every day once a day for 14 days, while only a vehicle was administered to a control group in the manner as in the test groups. The tumor growth inhibition rate (TGIR) was calculated as follows: The tumor growth inhibition rate (TGIR)=(1−TX/CX)×100 wherein CX represents the volume of tumor at day X for the control group when the tumor volume at the first day of the administration was presumed to be 1; and TX represents the tumor volume for test compound administration groups.

Experiment [3] has as its system Human colon carcinoma cells (LS174T). As to the kind of experiment: Antitumor activity against human colon carcinoma cells (LS174T) using nude mice. In kind it is in vivo. The settings on record: LS174T (printed LS17) in nude mice, oral 5 mg/kg once a day for 9 days. The protocol:
(§1) Human colon carcinoma cells (LS174T) (obtained from American Type Culture Collection) or human pulmonary carcinoma cells (A549) (obtained from RIKEN Cell Bank) were transplanted into nude mice. When the tumor volume became about 150 mm^3, the mice were grouped so that each group consisted of four mice and the average tumor volume was even among the groups. A test compound was orally administered at doses of 5 and 20 mg/kg to the test groups every day once a day for 9 days, while only a vehicle was administered to a control group in the manner as in the test groups. The tumor growth inhibition rate (TGIR) was calculated as follows: The tumor growth inhibition rate (TGIR)=(1−TX/CX)×100 wherein CX represents the volume of tumor at day X for the control group when the tumor volume at the first day of the administration was presumed to be 1; and TX represents the tumor volume for test compound administration groups.

Experiment [4] deals with human pulmonary carcinoma cells (A549). As to the kind of experiment: Antitumor activity against human pulmonary carcinoma cells (A549) using nude mice. In kind it is in vivo. The settings on record: A549 in nude mice, oral 20 mg/kg once a day for 9 days. The protocol: as §1
Where [5] appears, read: oral 5 mg/kg once a day for 14 days.

T1 sequence (P35968 20-1356): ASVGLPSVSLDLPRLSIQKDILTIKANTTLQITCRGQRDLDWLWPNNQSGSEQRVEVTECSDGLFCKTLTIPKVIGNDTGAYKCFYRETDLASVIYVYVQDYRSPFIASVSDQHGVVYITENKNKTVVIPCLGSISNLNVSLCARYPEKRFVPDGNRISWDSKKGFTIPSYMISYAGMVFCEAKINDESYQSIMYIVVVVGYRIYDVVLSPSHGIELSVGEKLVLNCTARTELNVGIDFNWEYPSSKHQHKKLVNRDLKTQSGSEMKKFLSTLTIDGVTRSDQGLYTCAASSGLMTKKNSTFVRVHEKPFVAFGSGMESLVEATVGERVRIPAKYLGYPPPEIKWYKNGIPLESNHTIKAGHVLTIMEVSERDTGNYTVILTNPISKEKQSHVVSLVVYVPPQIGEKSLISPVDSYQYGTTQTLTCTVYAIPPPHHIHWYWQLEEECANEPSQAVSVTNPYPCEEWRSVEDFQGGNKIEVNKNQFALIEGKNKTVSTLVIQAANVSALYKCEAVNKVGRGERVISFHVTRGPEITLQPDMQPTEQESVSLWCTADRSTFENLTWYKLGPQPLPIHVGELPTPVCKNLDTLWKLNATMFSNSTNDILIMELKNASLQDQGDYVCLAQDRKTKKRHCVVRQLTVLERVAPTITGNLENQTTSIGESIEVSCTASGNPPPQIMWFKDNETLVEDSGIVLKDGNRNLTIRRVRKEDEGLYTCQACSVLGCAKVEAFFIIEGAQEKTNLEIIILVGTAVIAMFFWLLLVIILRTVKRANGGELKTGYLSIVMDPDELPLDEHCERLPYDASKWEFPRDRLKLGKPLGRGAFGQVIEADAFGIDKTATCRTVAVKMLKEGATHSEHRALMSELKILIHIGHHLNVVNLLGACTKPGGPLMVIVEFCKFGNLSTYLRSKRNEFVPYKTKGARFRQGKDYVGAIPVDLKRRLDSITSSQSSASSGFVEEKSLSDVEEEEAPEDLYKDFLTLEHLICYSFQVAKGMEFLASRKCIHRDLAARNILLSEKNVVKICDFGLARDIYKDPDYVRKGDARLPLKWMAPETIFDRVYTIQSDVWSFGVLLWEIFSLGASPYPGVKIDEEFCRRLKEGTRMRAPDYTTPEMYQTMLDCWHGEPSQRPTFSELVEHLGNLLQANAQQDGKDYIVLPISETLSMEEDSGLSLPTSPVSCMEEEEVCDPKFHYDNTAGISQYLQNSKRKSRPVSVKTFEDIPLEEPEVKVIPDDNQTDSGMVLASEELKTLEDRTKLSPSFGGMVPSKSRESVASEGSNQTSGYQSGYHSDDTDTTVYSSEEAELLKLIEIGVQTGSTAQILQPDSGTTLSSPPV

Turning to `COc1cc2nccc(Oc3ccc(NC(=O)Nc4nc(C)cs4)c(F)c3)c2cc1OC.Cl` [Ex. 28, N-{4-[(6,7-Dimethoxy-4-quinolyl)oxy]-2-fluorophenyl}-N′-(4-methyl-1,3-thiazol-2-yl)urea hydrochloride], the IC50 at human KDR was found to be 0.3 nM. Moreover, in experiment [1], the inhibition in vivo at 20 mg/kg came out at 66.3%. For the same compound, the “TGIR (tumor growth inhibition rate)” value in experiment [2] (setting [5]) is on record as 59%.
For `COc1cc2nccc(Oc3ccc(NC(=O)Nc4nccs4)c(F)c3)c2cc1OC.Cl` [Ex. 27, N-{4-[(6,7-Dimethoxy-4-quinolyl)oxy]-2-fluorophenyl}-N′-(1,3-thiazol-2-yl)urea hydrochloride], at human KDR, the IC50 is 0.3 nM. In experiment [2] (setting [5]), the “TGIR (tumor growth inhibition rate)” value amounted to 82%.
Turning to `COc1cc2ncnc(Oc3ccc(NC(=O)Nc4nccs4)c(Cl)c3)c2cc1OC` [Ex. 38, N-{2-Chloro-4-[(6,7-dimethoxy-4-quinazolinyl)oxy]phenyl}-N′-(1,3-thiazol-2-yl)urea], at human KDR, the IC50 was less than 1 nM. Moreover, the inhibition in vivo at 20 mg/kg in experiment [1] was found to be 92%. Also, the “TGIR (tumor growth inhibition rate)” value in experiment [2] (setting [5]) turned out to be 78%.
`COc1cc2nccc(Oc3ccc(NC(=O)Nc4nnc(C(F)(F)F)s4)c(C)c3C)c2cc1OC` [Ex. 53, N-{4-[(6,7-Dimethoxy-4-quinolyl)oxy]-2,3-dimethylphenyl}-N′-[5-(trifluoromethyl)-1,3,4-thiadiazol-2-yl]urea]: the IC50 at human KDR was 1.2 nM. In addition, the inhibition in vivo at 20 mg/kg in experiment [1] stood at 14.4%.
For the compound `COc1cc2ncnc(Oc3ccc(NC(=O)Nc4ncc(C)s4)c(Cl)c3)c2cc1OC` [Ex. 39, N-{2-Chloro-4-[(6,7-dimethoxy-4-quinazolinyl)oxy]phenyl}-N′-(5-methyl-1,3-thiazol-2-yl)urea], the IC50 on human KDR was less than 1 nM. Further, in experiment [1], the inhibition in vivo at 20 mg/kg turned out to be 64%.
For `COc1cc2ncnc(Oc3ccc(NC(=O)Nc4nc(C)c(C)s4)c(Cl)c3)c2cc1OC` [Ex. 40, N-{2-Chloro-4-[(6,7-dimethoxy-4-quinazolinyl)oxy]phenyl}-N′-(4,5-dimethyl-1,3-thiazol-2-yl)urea], the IC50 on human KDR is less than 1 nM. Also, in experiment [1], the inhibition in vivo at 20 mg/kg worked out at 34.2%.
On to `COc1cc2nccc(Oc3ccc(NC(=O)Nc4cc(C)on4)c(Cl)c3)c2cc1OC` [Ex. 4, N-{2-Chloro-4-[(6,7-dimethoxy-4-quinolyl)oxy]phenyl}-N′-(5-methyl-3-isoxazolyl)urea], for which, in experiment [1], the inhibition in vivo at 20 mg/kg is 55.4%. Besides, the “TGIR (tumor growth inhibition rate)” value in experiment [2] (oral 0.2 mg/kg once a day for 14 days) is 62%; in experiment [2] (oral 0.5 mg/kg once a day for 14 days) it was 80%; in experiment [2] (oral 1 mg/kg once a day for 14 days) it was 88%; in experiment [3], 65%; in experiment [4], 65%.
For `COc1cc2nccc(Oc3ccc(NC(=O)Nc4nc(C)c(C)s4)cc3Cl)c2cc1OC` [Ex. 25, N-{3-Chloro-4-[(6,7-dimethoxy-4-quinolyl)oxy]phenyl}-N′-(4,5-dimethyl-1,3-thiazol-2-yl)urea], at human KDR, the IC50 was found to be 1.9 nM. Moreover, the inhibition in vivo at 20 mg/kg in experiment [1] amounted to 18.8%.
With `COc1cc2nccc(Oc3cc(C)c(NC(=O)Nc4nnc(C5CC5)s4)cc3C)c2cc1OC` [Ex. 69, N-(5-Cyclopropyl-1,3,4-thiadiazol-2-yl)-N′-{4-[(6,7-dimethoxy-4-quinolyl)oxy]-2,5-dimethylphenyl}-urea], the IC50 at human KDR was 4.1 nM. Further, the inhibition in vivo at 20 mg/kg in experiment [1] was 23.3%.
